Patent US20030224446A1, “Method of predicting cytokine response to tissue injury” (priority 2001, published 2003)
“Also recorded” adds a separate entry of the source.

Tests used:
[1] = test system: TNFβ, TNFα, IL-1α, MIP-1α and TGF-β1 mRNA; experiment: RNase protection assay, cytokine probe set, cortex; assay type: in vivo, mice; settings: 24 h
Procedure: (§1) Food and water were available ad libitum.
(§2) Based upon earlier studies with TMT exposure (Bruccoleri et al., 1998, 1999), Rnase protection assays were conducted at 24-h post-TMT. Multiprobe sets were used for simultaneous detection of mRNAs as previously described (Hobbs, 1993; Bruccoleri et al., 1999). The first set, provided by Dr. Iain Campbell (Scripps Research Institute, San Diego, Calif.), contained probes for intercellular adhesion molecule-1 (ICAM-1), inducible nitric oxide synthase (iNOS), an anti-apoptotic TNFα-inducible early response gene (A20), macrophase-1 antigen (Mac-1), a murine acute-phase response gene homologous to the α-1-antichymotrypsin gene (EB22/5), and GFAP as previously described (Campbell et al., 1994). The second set was purchased from Pharmingen (San Diego, Calif.) and contained probes for tumor necrosis factor-β (TNFβ) and -α (TNFα), interleukin-1α (IL-1α), macrophage inflammatory protein-1α (MIP-1α), and transforming growth factor-β1 (TGF-β1). Each probe set contained probes for L32 and GAPDH. A minimum of 4 animals per group was used in each experiment. Individual fragments were separated by 5% acrylamide/8 M urea sequencing gel electrophoresis and visualized by autoradiography (Hyperfilm-MP film; Amersham, Buckinghamshire, U.K.). Radioactivity in each fragment was visualized by phosphorimager (Molecular Dynamics, Sunnyvale, Calif.) and relative volume determined using Imagequant (Molecular Dynamics) and normalized relative to the corresponding L32 volume.
(§3) Subsequent independent group mean comparisons between each saline-injected genotype or between TMT and saline-injected mice, within each genotype, were conducted using individual one-way ANOVAs for each gene transcript. A statistical significance level was set at p<0.05.
Given the genotype-specific effects in the hippocampus of 8-month-old mice following TMT, additional brain regions were examined. In the cortex, TMT exposure elevated mRNA levels for TNFα and TGF-β1 in the wild-type mice with no elevation seen in the APOE knockout or APOE4 mice (FIG. 7). MIP-1α mRNA levels in both wild-type and APOE4 mice were elevated by TMT with no elevation in APOE knockout mice (FIG. 7).

[2] = test system: wild-type, APOE knockout and APOE4 mice; experiment: Systemic toxicity (tremor, seizures, survival) after a single i.p. dose of TMT
[3] = test system: TNFβ, TNFα, IL-1α, MIP-1α and TGF-β1 mRNA; experiment: RNase protection assay, cytokine probe set, hippocampus; assay type: in vivo, mice; settings: for increase of MEP-1α mRNA levels: vs saline
Procedure: as §1, §2, §3

[4] = test system: TNFβ, TNFα, IL-1α, MIP-1α and TGF-β1 mRNA; experiment: RNase protection assay, cytokine probe set, cerebellum; assay type: in vivo; settings: 8-month-old mice, 24 h
Procedure: as §1
as §2, with “Individual fragments were separated by 5% acrylamide/8 M urea sequencing gel electrophoresis and visualized by autoradiography (Hyperfilm-MP film; Amersham, Buckinghamshire, U.K.).” left out, “volume. […]” for “volume.”

[5] = test system: ICAM-1, iNOS, A20, Mac-1, EB22/5 and GFAP mRNA; experiment: RNase protection assay, host-response gene probe set, hippocampus; assay type: in vivo, mice; settings: 24 h; for mRNA levels for Mac-1, A20, and iNOS: any group of mice
Procedure: as §1, §2, §3

[6] = test system: hippocampal dentate granule cells; experiment: Hematoxylin and eosin staining of hippocampus 24 h after TMT; assay type: in vivo, mice
Procedure: as §1
(§4) Based upon previous studies with TMT exposure (Bruccoleri et al., 1998, 1999), a minimum of six mice per group were examined for morphological changes in the hippocampus 24 h following injection. Animals were lightly anesthetized with CO2 and decapitated and brains were removed from the cranium, bisected in the midsagittal plane, and immersion-fixed in 4% paragormaldehyde/0.1 M phosphate-buffered saline (PBS; pH 7.2) overnight at room temperature. Eight-micron paraffin-embedded sections were stained by routine hematoxylin and eosin (H&E) to visualize tissue cellularity. Astrocytes were identified by immunohistochemistry using polyclonal glial fibrillary acidic protein (GFAP) antibodies (Dako Corp., Carpinteria, Calif.). Briefly, rehydrated sections were treated with 3% H2O2, subjected to heat-induced epitope retrieval (HIER) using a decloaking chamber (Biocare Medical, Walnut Creek, Calif.), and incubated with nonimmune goat serum (1.5:100 dilution in 1% BSA/PBS) prior to incubation with rabbit anti-rat GFAP (1:2000 in 1:1 solution of 1% BSA and 1% powered milk in PBS). Sections were incubated with a secondary IgG antibody followed by ABC (avidin-biotin complex) reagent (Vectastain Elite, Vector Laboratories, Burlingame, Calif.) and detected by 3,3′-diaminobenzidine tetrahydrochloride (DAB) substrate (Sigma-Aldrich Research, St. Louis, Mo.). Microglia cells were identified by lectin binding (Bandeiraea Simplicifolia BS-4, 1:10; Sigma Chemical Co.; St. Louis, Mo.) by the method of Streit and Kreutzberg (1987) using HIER. Sites containing microglia bound peroxidase-lectin conjugates were visualized by DAB-H2O2 substrate containing CO2 ions.

[7] = test system: microglia; experiment: Lectin histochemistry for microglia in hippocampus 24 h after TMT; assay type: in vivo; settings: 24 h post-TMT, wild-type, APOE knockout and APOE4 mice
Procedure: as §1
as §4, with “Microglia cells were identified by lectin binding (Bandeiraea Simplicifolia BS-4, 1:10; Sigma Chemical Co.; St. Louis, Mo.) by the method of Streit and Kreutzberg (1987) using HIER. Sites containing microglia bound peroxidase-lectin conjugates were visualized by DAB-H2O2 substrate containing CO2 ions.” left out

[8] = test system: astrocytes (GFAP immunoreactivity); experiment: GFAP immunohistochemistry of astrocytes in hippocampus 24 h after TMT; assay type: in vivo, mice
Procedure: as §1, §4

[9] = 8-month-old APOE knockout mice, hippocampus, 24 h
[10] = 8-month-old, all animals, hippocampus, 24 h
[11] = 21-day-old wild-type and APOE knockout mice

For [CH3][Sn]([CH3])([CH3])[OH] [TMT, trimethyltin hydroxide], the “MIP-1α mRNA levels” value ([1]; 8-month-old APOE knockout mice) was “no elevation”, the “mRNA levels for TNFα and TGF-β1” value ([1]; 8-month-old APOE knockout or APOE4 mice) was “no elevation” and the “MIP-1α mRNA levels” value ([1]; 8-month-old wild-type and APOE4 mice) was “elevated”. For the same compound, the “mRNA levels for TNFα and TGF-β1” value ([1]; 8-month-old wild-type mice) was “elevated”, the “decrease in survival rate” value ([2]; APOE4 mice, 8 months of age, compared to APOE knockout and wild-type) was roughly 40% and the “decrease in survival rate” value ([2]; APOE4 mice, 21 days of age, 2.0 mg/kg i.p.) was 20%. The “decrease in survival rate” value ([2]; APOE knockout mice, 21 days of age, 2.0 mg/kg i.p.) was 10%, the aggressiveness or seizures ([2]; any of the mice exposed to TMT) was “No signs of aggressiveness or seizures” and the “increase of MEP-1α mRNA levels” value ([3]; 8-month-old APOE4 mice, hippocampus, 24 h) was 3 fold. For the same compound, the “elevation in MIP-1α mRNA compared to the response in wild-type mice” value ([3]; 8-month-old APOE knockout mice) was “less elevation”, the “TNFα mRNA level” value [3, 9] was “distinct lack of elevation; also recorded: No elevation” and the “increase of MEP-1α mRNA levels” value [3, 9] was 1.3 fold. For the same compound, the “TNFα mRNA levels” value ([3]; 8-month-old wild-type and APOE4 mice, hippocampus, 24 h) was “elevated”, the “increase of MEP-1α mRNA levels” value ([3]; 8-month-old wild-type mice, hippocampus, 24 h) was 3.5 fold and the “MIP-1α mRNA levels relative to saline-injected mice” value [3, 10] was “significant (p<0.05) elevations”. For the same compound, the “mRNA levels for TNFβ, IL-1α, or TGF-β1” value [3, 10] was “No significant elevations”, the “IL-1α mRNA levels” value ([3]; 21-day-old APOE knockout and APOE4 mice, hippocampus, 24 h) was “elevated” and the “TNFα and TGF-β1 mRNA levels” value ([3]; 21-day-old wild-type and APOE knockout mice, hippocampus, 24 h) was “significantly elevated”. For the same compound, the “MIP-1α mRNA levels” value ([3]; 21-day-old, all mice, hippocampus, 24 h) was “elevations”, the “induction of TNFα, IL-1α, and MIP-1α by TMT” value ([3]; APOE knockout mice (discussion)) was “lack of an induction” and the “induction of TGF-β1” value ([3]; APOE knockout mice or those containing the E4 allele, following TMT (discussion)) was “lack of an induction”. The “mRNA levels for TNFβ, TNFα, IL-1α, MIP-1α, and TGF-β1” value [4] was “no effect”, the “EB22 mRNA levels” value ([5]; 8-month-old APOE knockout and APOE4 mice) was “elevation” and the “EB22 mRNA levels” value ([5]; 8-month-old wild-type mice) was “No elevation”. The “GFAP mRNA levels” value ([5]; 8-month-old, all groups of mice) was “elevation”, the “mRNA levels for Mac-1, A20, and iNOS” value ([5]; 8-month-old) was “not altered” and the “EB22 mRNA levels” value ([5]; 21-day-old APOE4 mice) was “no elevation”. For the same compound, the “EB22 mRNA levels” value [5, 11] was “significant (p<0.05) elevation”, the “GFAP mRNA levels” value [5, 11] was “significantly elevated” and the “ICAM-1 mRNA levels” value ([5]; 21-day-old, all mice, vs saline) was “slight but significant elevation”. The “mRNA levels for Mac-1, A20, and iNOS” value ([5]; 21-day-old) was “not altered”, the “neuronal necrosis in dentate granule cells (FIG. 1)” value ([6]; TMT-exposed wild-type, APOE knockout and APOE4 mice, 2 mg/kg ip, 24 h) was “Severe neuronal necrosis” and the “neuronal cell death in the hippocampus (dentate granule cells)” value ([6]; wild-type mice, 24 h after TMT) was “neuronal cell death was evident”. The “neurons of the pyramidal cell layer” value ([6]; wild-type mice, 24 h after TMT) was “no indication of neuronal cell death”, the “reactive/activated microglia by lectin histochemistry” value [7] was “did not detect reactive/activated microglia” and the “astrocyte morphology (FIG. 2)” value ([8]; 24 h after TMT 2.0 mg/kg ip, compared with saline) was “thick cell bodies and processes characteristic of astrocyte reactivity”. The “GFAP immunoreactivity in astrocytes” value ([8]; APOE knockout and APOE4 mice, 24 h after TMT) was “slight increase in GFAP immunoreactivity” and the GFAP immunostaining ([8]; wild-type mice, 24 h after TMT) was “little change”.
